Results published in patent US20130158024A1, “TRICYCLIC NECROSTATIN COMPOUNDS” (priority 2005, published 2013).

Key:
Jurkat T cells = experiment: Necrosis (CICD) of Jurkat T cells induced by Fas ligand, cycloheximide and zVAD, ATP assay; assay type: cell-based, human; conditions: FasL/CHX/zVAD
Protocol: Jurkat cells were treated with 5 ng/ml of FasL without (A) or with cyclohexamide (CHX) (B) to induce apoptosis, or 5 ng/ml FasL, 1 μg/ml of CHX and 100 μM of zVAD.fmk to induce CICD (B). […] Cell viability was determined after 24 hours of incubation with indicated reagents using CellTiter-Glo ATP assay. The values represent viability relative to the control Jurkat cells without the treatment of FasL, which was set as 100% viability.
FIG. 34A is a graph showing the results of treating Jurkat T cells with Fas ligand (5 ng/ml), cyclohexamide (1 μg/ml) and zVAD (100 μM) in the presence of the indicated amounts of anti-necrotic compounds (4) and (5). Viability was determined 36 hours later using an ATP assay. The viability values are relative to the samples lacking Fas ligand, which were used as 100% viability controls. FIG. 34B is a graph as in FIG. 34A, in which the anti-necrotic compounds are (19) and (20).
Compounds were also tested in another necrosis assay utilizing human Jurkat T cells, Fas ligand to induce cell death, and zVAD to inhibit the apoptosis pathway. After 36 hours, cell viability was measure by the commercial CellTiter ATP cell viability assay (Promega).

SH-SY5Y cells [1] = experiment: MPP+ cytotoxicity in SH-SY5Y neuroblastoma cells in the presence of zVAD, ATP assay; assay type: cell-based, human; conditions: zVAD 100 μM, compound 30 μM, 72 hours
Protocol: FIG. 15 is a chart showing that necrostatins attenuate MPP^+ cytotoxicity in human SH-SY5Y neuroblastoma cells. Cells were treated with 5 mM MPP^+ in the presence or absence of 100 μM zVAD.fmk and 30 μM necrostatins for 72 hours, followed by an ATP assay. Values represent cell viability normalized to the corresponding compound treated controls not treated with MPP^+.
(§1) FIG. 35A is a graph showing the results of treating SH-SY5Y cells with 1 mM MPP+ in the presence of zVAD (100 μM) and compound (19) (30 μM) for 72 hours. Cell viability was determined using an ATP assay. FIG. 35B is a graph as in FIG. 35A, in which cells were treated in the presence of 100 μM amyloid-beta 25-35 protein rather than MPP+.

SH-SY5Y cells [2] = experiment: Amyloid-beta 25-35 toxicity in SH-SY5Y cells in the presence of zVAD, ATP assay; assay type: cell-based, human; conditions: 100 μM amyloid-beta 25-35, zVAD 100 μM, compound 30 μM, 72 hours
Protocol: as §1
To further verify that (19) can protect neuronal cells from necrosis, it was tested using two different neurotoxins in the human neuroblastoma cell line SH-SY5Y in the presence of zVAD. Cell death was induced by β-amyloid, a cellular model of Alzheimer's disease, and […] (MPP+), a cellular model of Parkinson's disease.

[3] = tested on: Jurkat cells expressing dimerizable FADD; experiment: Toxicity of compound alone in Jurkat cells expressing dimerizable FADD (no dimerizer); conditions: compound in the absence of dimerizer
[4] = tested on: Jurkat cells expressing dimerizable FADD; conditions: Homo sapiens, Jurkat, 36 h

COc1ccc([C@H]2[C@H]3CCc4ccc(OC)cc4C3=NN2C(C)=O)cc1 (relative stereo) [Compound 141, (3R,3aR)-rel-2-acetyl-3,3a,4,5-tetrahydro-3-(4-methoxyphenyl)-8-methoxy-2H-benz[g]indazole]
inhibition of CICD/necrosis of Jurkat cells, in words (Jurkat T cells): efficiently inhibit necrosis and result in high cell viability | attenuation of MPP+ cytotoxicity, in words (SH-SY5Y cells [1]): effective in reducing toxicity as measured by cellular ATP levels | reduction of β-amyloid toxicity in SH-SY5Y, in words (SH-SY5Y cells [2]): effective in reducing toxicity as measured by cellular ATP levels

Cc1cc(O)c(C(=O)/C=C/c2ccc(O)c([N+](=O)[O-])c2)c(=O)o1 [Nec-2]
attenuation of MPP+ cytotoxicity, in words (SH-SY5Y cells [1]): especially pronounced in case of Nec-2 | LD50 [3]: 134 µM | EC50 [4]: 27.3 µM
